Key:
ZR-75-1 = experiment: Caspase activation assay in ZR-75-1 cells; assay type: cell-based; conditions: Homo sapiens, ZR751 cells, 24 h incubation, read-out: Caspase activation potency EC50 ZR751
Experimental: (§1) Human breast cancer cell lines T-47D and ZR-75-1, human colon cancer cell line DLD-1 and human non-small cell lung cancer cell line H1299 were grown according to media component mixtures designated by American Type Culture Collection+10% FCS (Invitrogen Corporation), in a 5% CO2−95% humidity incubator at 37° C. T-47D and ZR-75-1 cells were maintained at a cell density between 30 and 80% confluency at a cell density of 0.1 to 0.6×10^6 cells/mL. Cells were harvested at 600×g and resuspended at 0.65×10^6 cells/mL into appropriate media+10% FCS. An aliquot of […] of cells was added to a well of a 96-well microtiter plate containing 5 μl of a 10% DMSO in RPMI-1640 media solution containing about 0.16 to 10 μM of 2,7,8-triamino-4-(3-bromo-4,5-dimethoxy-phenyl)-3-cyano-4H-chromene (1) or other test compounds (0.016 to 1 μM final). An aliquot of 45 μl of cells was added to a well of a 96-well microtiter plate containing 5 μl of a 10% DMSO in RPMI-1640 media solution without test compound as the control sample. The samples were mixed by agitation and then incubated at 37° C. for 24 h in a 5% CO2−95% humidity incubator. […] Using a fluorescent plate reader (Model 1420 Wallac Instruments), an initial reading (T=0) was made about 1-2 min after addition of the substrate solution, employing excitation at 485 nm and emission at 530 nm, to determine the background fluorescence of the control sample. After the 3 h incubation, the samples were read for fluorescence as above (T=3 h).
(§2) The Relative Fluorescence Unit values (RFU) were used to calculate the sample readings as follows: RFU(T=3h)−Control RFU(T=0)=Net RFU(T=3h)
(§3) The activity of caspase cascade activation was determined by the ratio of the net RFU value for 2,7,8-triamino-4-(3-bromo-4,5-dimethoxy-phenyl)-3-cyano-4H-chromene or other test compound to that of control samples. The EC50 (nM) was determined by a sigmoidal dose-response calculation (Prism 2.0, GraphPad Software Inc.).

T-47D = experiment: Caspase activation assay in T-47D cells; assay type: cell-based; conditions: Homo sapiens; T47D cells, 24 h incubation; read-out: Caspase activation potency EC50 T47D
Experimental: (§4) Human breast cancer cell lines T-47D and ZR-75-1, human colon cancer cell line DLD-1 and human non-small cell lung cancer cell line H1299 were grown according to media component mixtures designated by American Type Culture Collection+10% FCS (Invitrogen Corporation), in a 5% CO2−95% humidity incubator at 37° C. T-47D and ZR-75-1 cells were maintained at a cell density between 30 and 80% confluency at a cell density of 0.1 to 0.6×10^6 cells/mL. Cells were harvested at 600×g and resuspended at 0.65×10^6 cells/mL into appropriate media+10% FCS. An aliquot of […] of cells was added to a well of a 96-well microtiter plate containing 5 μl of a 10% DMSO in RPMI-1640 media solution containing about 0.16 to 10 μM of 2,7,8-triamino-4-(3-bromo-4,5-dimethoxy-phenyl)-3-cyano-4H-chromene (1) or other test compounds (0.016 to 1 μM final). An aliquot of 45 μl of cells was added to a well of a 96-well microtiter plate containing 5 μl of a 10% DMSO in RPMI-1640 media solution without test compound as the control sample. The samples were mixed by agitation and then incubated at 37° C. for 24 h in a 5% CO2−95% humidity incubator. After incubation, the samples were removed from the incubator and 50 μl of a solution containing 20 μM of N-(Ac-DEVD)-N′-ethoxycarbonyl-R110 (SEQ ID No:1) fluorogenic substrate (Cytovia, Inc.; U.S. Pat. No. 6,335,429), 20% sucrose (Sigma), 20 mM DTT (Sigma), 200 mM NaCl (Sigma), 40 mM Na PIPES buffer pH 7.2 (Sigma), and 500 μg/ml lysolecithin (Calbiochem) was added. The samples were mixed by agitation and incubated at room temperature. Using a fluorescent plate reader (Model 1420 Wallac Instruments), an initial reading (T=0) was made about 1-2 min after addition of the substrate solution, employing excitation at 485 nm and emission at 530 nm, to determine the background fluorescence of the control sample. After the 3 h incubation, the samples were read for fluorescence as above (T=3 h).
as §2, §3

DLD-1 = experiment: Caspase activation assay in DLD-1 cells; assay type: cell-based; conditions: Homo sapiens, 24 h incubation, read-out: Caspase activation potency EC50 DLD-1
Experimental: as §1, §2, §3

H1299 = experiment: Caspase activation assay in H1299 cells; assay type: cell-based; conditions: Homo sapiens, NCI-H1299, 24 h incubation, read-out: Caspase activation potency EC50 H1299
Experimental: as §4, §2, §3

solid tumor cells = experiment: Caspase cascade activation and induction of apoptosis, overall statement; assay type: cell-based, human; conditions: summary of Table I
Experimental: as §1, §3

[1] = test system: MX1 human breast cancer tumors; experiment: In vivo antitumor activity in MX-1 model, combination with cisplatin and doxorubicin; set-up: species or system mice
Experimental: MX1 human breast cancer tumors were obtained from the NCI-FCRDC and maintained as tumors in nude mice. Tumor bits were implanted with a trocar into the right mammary area of female nu/nu mice and allowed to grow to an average size of 200-250 mg, about 12 days after being implanted. Animals were randomized and assigned to study groups of 8-10 animals/group. Body weight were determined and tumor size were measured by calipers and converted to volume by the standard formula of Vol=L×W^2/2. Compound 1R was formulated in 7% PEG400/9% Tween80/84% D5W and administered IV via the tail vein at the indicated days and doses. Day 1 of the study was the first day of treatment. Survival time was the number of days for the tumor to reach 1000 mg or death, whichever occurred earliest. Median survival is the median for the group.
Mice implanted with MX1 human breast cancer tumors were treated with compound 1R as described in EXAMPLE 11. Cisplatin was administered IP whereas doxorubicin was administered IV at the indicated doses.

[2] = cisplatin 2 mg/kg, day 2, 9, IP
[3] = doxorubicin 2 mg/kg, day 2, 9, IV

Compound	EC50 (T-47D) [nM]	EC50 (H1299) [nM]	other results
COc1cc(C2C(C#N)=C(N)Oc3c2ccc(N)c3N)cc(Br)c1OC (racemic) [Compound 1, 2,7,8-Triamino-4-(3-bromo-4,5-dimethoxy-phenyl)-3-cyano-4H-chromene]	42	120	EC50 (ZR-75-1): 35 nM; EC50 (DLD-1): 78 nM
COc1cc(C2C(C#N)=C(N)Oc3c2ccc(NC(=O)CN(C)C)c3N)cc(Br)c1OC (stereo not shown) [A]	2540	3340	
COc1cc(C2C(C#N)=C(N)Oc3c2ccc(NC(=O)[C@H](N)CCCCN)c3N)cc(Br)c1OC (stereo partly shown) [G]	1420	3750	
COc1cc(C2C(C#N)=C(N)Oc3c2ccc(NC(=O)CCCN)c3N)cc(Br)c1OC (stereo not shown) [B]	5500	5780	
COc1cc([C@H]2C(C#N)=C(N)Oc3c2ccc(NC(=O)CN)c3N)cc(Br)c1OC [Compound 6, 2-Amino-N—((R)-2,8-diamino-4-(3-bromo-4,5-dimethoxyphenyl)-3-cyano-4H-chromen-7-yl)acetamide]	60		
COc1cc([C@H]2C(C#N)=C(N)Oc3c2ccc(NC(=O)[C@H](C)N)c3N)cc(Br)c1OC [Compound 4, (2S)-2-Amino-N—((R)-2,8-diamino-4-(3-bromo-4,5-dimethoxyphenyl)-3-cyano-4H-chromen-7-yl)propanamide]	52		Caspase cascade activator and inducer of apoptosis (in words) (solid tumor cells): potent caspase cascade activator and inducer of apoptosis
N.N.[Cl][Pt][Cl] [Cisplatin, reference compound]			Median survival [1, 2]: 27 days; Number of tumor free mice at day 91 [1, 2]: 1 of 7; Median survival ([1]; cisplatin 2 mg/kg, day 2, IP): 11 days; Number of tumor free mice at day 91 ([1]; cisplatin 2 mg/kg, day 2, IP): 0 of 9
COc1cc([C@H]2C(C#N)=C(N)Oc3c2ccc(NC(=O)[C@H](C)NC(=O)OCC2c4ccccc4-c4ccccc42)c3N)cc(Br)c1OC [Compound 3, (9H-fluoren-9-yl)methyl(S)-1-((R)-2,8-diamino-3-cyano-4-(3-bromo-4,5-dimethoxyphenyl)-4H-chromen-7-ylcarbamoyl)ethylcarbamate]	2880		
COc1cc([C@@H]2C(C#N)=C(N)Oc3c2ccc(N)c3N)cc(Br)c1OC [Compound 1S, S(+)-2,7,8-triamino-4-(3-bromo-4,5-dimethoxy-phenyl)-3-cyano-4H-chromene]	2490	3210	EC50 (ZR-75-1): 2010 nM; EC50 (DLD-1): 4570 nM; Caspase cascade activator and inducer of apoptosis (in words) (solid tumor cells): inactive isomer
COc1cccc2c1C(=O)c1c(O)c3c(c(O)c1C2=O)C[C@@](O)(C(=O)CO)C[C@@H]3O[C@H]1C[C@H](N)[C@H](O)[C@H](C)O1 [Doxorubicin, reference compound]			Median survival [1, 3]: 11 days; Number of tumor free mice at day 91 [1, 3]: 0 of 9
COc1cc(C2C(C#N)=C(N)Oc3c2ccc(NC(=O)C(N)COC(C)=O)c3N)cc(Br)c1OC (stereo not shown) [F]	4120	5670	
COc1cc(C2C(C#N)=C(N)Oc3c2ccc(NC(=O)CN)c3N)cc(Br)c1OC (stereo not shown) [C]	160	273	
COc1cc([C@H]2C(C#N)=C(N)Oc3c2ccc(NC(=O)CNC(=O)OCC2c4ccccc4-c4ccccc42)c3N)cc(Br)c1OC [Compound 5, (9H-fluoren-9-yl)methyl((R)-2,8-diamino-4-(3-bromo-4,5-dimethoxyphenyl)-3-cyano-4H-chromen-7-ylcarbamoyl)methylcarbamate]	2440		
COc1cc(C2C(C#N)=C(N)Oc3c2ccc(NC(=O)C2CCCN2)c3N)cc(Br)c1OC (stereo not shown) [Compound E]	3900	5330	
COc1cc(C2C(C#N)=C(N)Oc3c2ccc(NC(=O)C[N+](C)(C)C)c3N)cc(Br)c1OC (stereo not shown) [D]	> 10000	> 10000	

From US7968595B2, “Substituted 4-aryl-chromene as activator of caspases and inducer of apoptosis and as antivascular agent and the use thereof” (Cytovia, Inc., priority 2006, dated 2011)
